Laboratory results taken from US20220008437A1, “Use of prostaglandin E1 methyl ester in manufacture of vasodilator” (XI'AN LIBANG ZHAOXIN BIOTECHNOLOGY CO., LTD., priority 2018, published 2022).
pEC50: −log10 of the molar value. Where two headings read alike, the source gives them in different places.

How the values were obtained:
[1] = target: T1, hDP1 (Homo sapiens, UniProt Q13258); experiment: radioligand ([3H] Prostaglandin D2) competitive receptor binding assay, DP receptor affinity in vitro; conditions: Test Concentration 100 nM; [3H] PGD2 radioligand; read-out: Inhibition rate
T1 sequence (Q13258 1-359): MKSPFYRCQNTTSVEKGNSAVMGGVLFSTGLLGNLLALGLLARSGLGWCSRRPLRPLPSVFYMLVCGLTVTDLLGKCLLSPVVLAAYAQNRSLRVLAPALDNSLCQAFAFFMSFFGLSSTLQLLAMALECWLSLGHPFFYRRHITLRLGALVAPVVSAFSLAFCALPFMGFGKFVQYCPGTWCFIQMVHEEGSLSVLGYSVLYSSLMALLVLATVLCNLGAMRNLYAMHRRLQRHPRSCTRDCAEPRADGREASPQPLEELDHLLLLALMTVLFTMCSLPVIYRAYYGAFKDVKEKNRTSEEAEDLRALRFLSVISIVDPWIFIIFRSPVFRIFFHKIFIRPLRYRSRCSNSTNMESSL
Excerpt: Affinity Test of DP Receptor Target In Vitro.
The radioligand ([3H] Prostaglandin D2 (PGD2)) competitive receptor binding assay was used to evaluate the affinity of the test compound with the DP receptor.

[2] = system: ADP-induced platelet aggregation; experiment: anti-platelet aggregation test in vitro (platelet-rich plasma, ADP inducer); assay type: cell-based, SD rats; conditions: for inhibition at 100 µM: Rattus norvegicus, Platelet, 10 min, after 10 minutes of incubation, read-out: inhibition rate on ADP-induced platelet aggregation; for onset of anti-platelet aggregation effect after addition to PRP: incubation 0 min onward, FIG. 1
Protocol: The Effect of the Prostaglandin E1 Methyl Ester of the Disclosure in the Anti-Platelet Aggregation Test In Vitro.
When healthy adult SD rats were anesthetized by intraperitoneal injection of 10% chloral hydrate, fresh whole blood was collected from the abdominal aorta and added to a centrifuge tube anticoagulated with 3.8% sodium citrate solution, and centrifuged at 900 rpm for 10 minutes to remove the upper platelet-rich plasma (PRP) for use. The tube having PRP removed was further centrifuged at 4000 rpm for 10 minutes, and the upper clarified plasma (PPP) was removed for use. In the experiment, Techlink model LBY-NJ4 4-channel platelet aggregator was used to determine the anticoagulant efficacy of each compound.
Into a sample cup containing 300 μL of PRP, 2 μL of 100 μM prostaglandin E1, prostaglandin E1 methyl ester of example 1, Compound 2 of Example 2 and methanol (solvent) were first added. After incubated for different periods (0, 1, 2, 4, 7, 10, 15 min), 20 μL of aggregation inducer 180 μM ADP solution was added. The aggregation rate of each sample was measured, and the inhibitory rate of the compound on ADP-induced platelet aggregation was calculated.
Inhibition rate %=(solvent aggregation rate−compound aggregation rate)/solvent aggregation rate×100%

[3] = system: isolated rabbit blood vessels; experiment: vasodilation test in vitro, isolated aortic ring specimens; assay type: cell-based, New Zealand white rabbits; conditions: isolated rabbit thoracic aortic rings, cumulative addition 0.05-25.6 nM, read-out: diastolic efficacy EC50
Excerpt: The Effect of the Prostaglandin E1 Methyl Ester of the Disclosure in the Vasodilation Test In Vitro
In the experiment, rabbits were selected to prepare isolated aortic ring specimens: New Zealand white rabbits, male, weighing (2.5±0.3) kg. The rabbit was stunned with a blunt instrument, fixed on the rabbit dissecting table, and the thoracic aorta was quickly separated, and placed in a petri dish filled with saturated Kerbs solution (containing NaCl 6.9 g, KCl 0.35 g, MgSO4.7H2O 0.29 g, KH2PO4 0.16 g, NaHCO32.1 g, CaCl2) 0.28 g, glucose 2 g per 1000 mL) at 37° C. and continuously introduced with mixed gas (95% O2, 5% CO2). The remaining blood in the blood vessel was squeezed out, and the peripheral fat and connective tissue were carefully peeled off, and it was cut into 0.5 cm long arterial rings for use. […]
BL-420S biological function experiment system (Chengdu Techman Technology) was used to record the variation of vascular ring tension. After the vascular ring contraction was stable, prostaglandin E1 and the compounds of the Examples were accumulatively added to successively increase the final mass concentration of prostaglandin E1 in the bath tube to 0.05, 0.1, 0.2, 0.4, 0.8, 1.6, 3.2, 6.4, 12.8, 25.6 nM, and the diastolic efficacies of the vascular ring were recorded.

[4] = system: human umbilical vein endothelial cells (HUVEC); experiment: HUVEC proliferation, MTT detection; assay type: cell-based; conditions: 1-100 nM, incubated 24 hours, compared with unmedicated wells
Protocol: Frozen human umbilical vein endothelial cells (HUVEC) were resuscitated and placed in low-sugar DMEM medium with 10% (V/V) FBS, and 100 U/L penicillin and 0.1 g/L streptomycin were added. It was cultured artificially in an environment of 5% CO2 and 95% air at a temperature of 37° C. A fresh medium was replaced every three days. When the cell density reached 70-80%, the digestion solution (0.25% trypsin/0.02EDTA) was used to harvest the cells. After the cells were resuspended, they were seeded in a 96-well plate with a density of 5×10^3 per well. After 1 day of culture, 1-100 nM of prostaglandin methyl ester was added and incubated for 24 hours for MTT detection.

[5] = system: mouse scleroderma model; experiment: mouse scleroderma model (bleomycin subcutaneously); assay type: in vivo, Balb/c mice; conditions: for Skin thickness / Collagen content: osmotic pump 28 days; for Skin thickness: inferior vena cava; for Collagen content: skin
Protocol: Therapeutic Effect of Prostaglandin E1 Methyl Ester in Mouse Scleroderma Model In this experiment, 56 Balb/c mice weighing 22-25 g were randomly divided into 7 groups: normal group, model group, vehicle group, prostaglandin E1 high-dose group and prostaglandin E1 low-dose group, and prostaglandin E1 methyl ester high-dose group and prostaglandin E1 methyl ester low-dose group. Model preparation: the clothing hair on the central area of the mice was shaved, the normal group was injected with 0.1 ml PBS subcutaneously on the back, and the other groups were injected with 0.1 ml of 0.2 mg/ml bleomycin subcutaneously, once a day for three weeks. […] Prostaglandin E1 high and low-dose groups were loaded with 28 μg and 14 μg of drugs respectively; prostaglandin E1 methyl ester high and low-dose groups were also loaded with 28 μg and 14 μg of drugs respectively; solvent group was not loaded with drugs. […] The administration was started at the same time as the model was created. Index detection: After the administration, the animals were sacrificed, and skin and lung sections of the injection site were made, and HE stained. The histological changes were observed, and the skin (dermis) thickness was measured; and the photoelectric colorimetry was used to determine the content of hydroxyproline and protein in the skin to infer the content of collagen.

[6] = distribution in rat skin tissue (total radiation value); conditions: 200 μg [3H]-labelled drug via osmotic pump over 3 days, inferior vena cava
Protocol: Distribution of Prostaglandin E1 Methyl Ester in Rat Skin Tissue
In this experiment, 12 male SD rats weighing 250-280 g were randomly divided into two groups (n=6): prostaglandin E1 group and prostaglandin E1 methyl ester group. Osmotic pumps (model 1003D, ALZA Corporation, Canada) containing 100 μl of drug in DMSO were used. The drug was released at a constant rate, and the drug release cycle was 3 days. They were loaded with 200 μg of [^3H] prostaglandin E1 and [^3H] prostaglandin E1 methyl ester respectively. […] After the administration, the animals were sacrificed, skin tissues were taken (the same position for each animal), weighed, and the total radiation value was measured.

[7] = 2 μL of 100 μM compound in 300 μL PRP

With `CCCCCC(O)/C=C/C1C(O)CC(=O)C1CCCCCCC(=O)OC` (stereo not drawn) [prostaglandin E1 methyl ester] the inhibition at 0.1 µM [1] was 78%, the inhibition at 100 µM [2, 7] was 43.7% and the “duration of anticoagulant effect relative to prostaglandin E1” value ([2]; compared with prostaglandin E1) was 2 times. The “onset of anti-platelet aggregation effect after addition to PRP” value (“onset” below) [2] was “take effect immediately”, the pEC50 ([3]; Oryctolagus cuniculus) was 8.96 and the “proliferation of vascular endothelial cells” value [4] was “significant effect of promoting the proliferation of vascular endothelial cells”. For the same compound, the “lung tissue histology (alveolar septum thickening, inflammatory cell infiltration)” value ([5]; HE stained lung sections, compared with prostaglandin E1 group) was “slightly better than the prostaglandin E1 group”, the Skin thickness ([5]; high-dose 1 ug/day) was 21.35 ± 2.11 μm and the Collagen content ([5]; high-dose 1 ug/day) was 467.52 ± 141.08 mg/L. The Skin thickness ([5]; low-dose 0.5 ug/day) was 24.66 ± 2.54 μm and the Collagen content ([5]; low-dose 0.5 ug/day) was 588.62 ± 127.41 mg/L.

For `CCCCC[C@H](O)/C=C/[C@H]1[C@H](O)CC(=O)[C@@H]1CCCCCCC(=O)O` [prostaglandin E1, Prostaglandin E1], the “inhibition rate on ADP-induced platelet aggregation” value ([2]; after 4 minutes of incubation, 2 μL of 100 μM compound in 300 μL PRP) was 4.93%, the “onset” value [2] was “take effect immediately” and the pEC50 [3] was 8.01. The Skin thickness ([5]; high-dose 1 ug/day) was 29.12 ± 2.46 μm, the Collagen content ([5]; high-dose 1 ug/day) was 879.66 ± 128.92 mg/L and the Skin thickness ([5]; low-dose 0.5 ug/day) was 32.59 ± 3.03 μm. The Collagen content ([5]; low-dose 0.5 ug/day) was 947.99 ± 214.86 mg/L and the Skin tissue concentration [6] was 45.1 ± 7.5 ng (radiatione quivalent)/g.

For `CCCCC[C@H](O)/C=C/[C@H]1[C@H](O)CC(=O)[C@@H]1CCCCCCC(=O)OCC` [Compound 2], the inhibition at 100 µM [2, 7] was 51.9% and the “onset” value [2] was “does not take effect immediately”.
